Earlier results as cited in US20250228918A1, “METHODS OF CONTROLLING BODY WEIGHT AND/OR ENERGY EXPENDITURE” (Yale University, priority 2022, published 2025).

Conditions: in vivo

brain penetration: penetrates well into brain
SMILES: C[C@H]1Oc2cc(cnc2N)-c2c(nn(C)c2C#N)CN(C)C(=O)c2ccc(F)cc21 [Lorlatinib]
